Measured values published in patent US20170226139A1, “CRYSTALLINE SALTS OF (Z)-O-OCTADEC-9-EN-1-YL O,O-DIHYDROGEN PHOSPHOROTHIOATE” (priority 2013, published 2017).
Read-outs that look alike come from different tables or passages of the source.

Assays:
[1] = molecular target: LPA2 receptors from the rat (Rattus norvegicus, UniProt A0ABK0LT65); assay: Calcium-mobilization assay (FURA-2), rat LPA2; type: cell-based
Description: (§1) We investigated structure-activity relationships across species, LPAR subtypes and between Rx100 and two known process impurities encountered in manufacture: Rx103 (‘E’ isomer) and Rx200 (oleyl phosphate and impurity, which can be an Rx100 degradant along with oleyl alcohol). Rx100, Rx103, Rx200 and native LPA were investigated at different human LPAR subtypes. In addition, the activity of these compounds was evaluated at LPA2 receptors from the rhesus, rat and mouse species. Human LPA1/2/3 subtypes were transfected into mouse embryonic fibroblasts (MEF) or rat hepatoma cells (RH7777)—both of which are normally non-responsive or null to LPA. Human LPA4 was transfected into Chinese hamster ovary (CHO) cells and LPA5 into the B103 neuroblastoma cell line. […] The B103 rat neuroblastoma cell line is endogenously nonresponsive to LPA but expresses heterologous LPA5 receptors well. […] LPAR activation elicits a G-protein-mediated transient rise in intracellular calcium level that is proportional to the concentration of LPA applied. The intracellular calcium level was quantified by the calcium-selective fluorescent indicator FURA-2 (e.g., increased intracellular calcium surge=increased fluorescence).

[2] = molecular target: LPA2 receptors from the rhesus (Macaca mulatta, UniProt I2CXV3); assay: Calcium-mobilization assay (FURA-2), rhesus LPA2; type: cell-based
Sequence of LPA2 receptors from the rhesus (I2CXV3 1-351): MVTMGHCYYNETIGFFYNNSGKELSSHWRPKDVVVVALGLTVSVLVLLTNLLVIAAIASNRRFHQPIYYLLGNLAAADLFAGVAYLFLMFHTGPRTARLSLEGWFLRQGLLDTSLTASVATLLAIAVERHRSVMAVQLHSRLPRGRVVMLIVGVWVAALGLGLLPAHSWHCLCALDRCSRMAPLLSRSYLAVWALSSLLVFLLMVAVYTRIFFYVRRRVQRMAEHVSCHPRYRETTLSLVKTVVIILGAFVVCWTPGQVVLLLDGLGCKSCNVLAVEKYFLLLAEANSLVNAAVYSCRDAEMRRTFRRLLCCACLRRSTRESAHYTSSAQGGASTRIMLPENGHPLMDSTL
Description: as §1

Human LPA4 = molecular target: T1, Human LPA4 (Homo sapiens, UniProt Q99677); assay: Calcium-mobilization assay (FURA-2), human LPA4 in CHO cells; type: cell-based
T1 construct: expressed in transfected cells; host or cells: CHO
T1 sequence (Q99677 whole entry): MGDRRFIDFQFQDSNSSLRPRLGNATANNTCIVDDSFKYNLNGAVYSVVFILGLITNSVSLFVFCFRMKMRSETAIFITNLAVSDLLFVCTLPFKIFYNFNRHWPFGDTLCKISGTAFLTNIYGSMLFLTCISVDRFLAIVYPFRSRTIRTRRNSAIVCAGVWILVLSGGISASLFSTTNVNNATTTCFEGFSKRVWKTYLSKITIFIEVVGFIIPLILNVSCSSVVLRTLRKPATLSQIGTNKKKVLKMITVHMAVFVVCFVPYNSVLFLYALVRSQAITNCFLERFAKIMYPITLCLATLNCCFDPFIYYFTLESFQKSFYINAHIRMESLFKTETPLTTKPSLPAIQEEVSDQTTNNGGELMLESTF
Description: as §1

Control CHO = assay: Calcium-mobilization assay, untransfected Control CHO cells; type: cell-based, Chinese hamster
Description: as §1

LPA5 = molecular target: T2, LPA5 (Homo sapiens, UniProt Q9H1C0); assay: Calcium-mobilization assay (FURA-2), LPA5 in B103 neuroblastoma cells; type: cell-based
T2 construct: expressed in transfected cells; host or cells: B103 rat neuroblastoma
T2 sequence (Q9H1C0 whole entry): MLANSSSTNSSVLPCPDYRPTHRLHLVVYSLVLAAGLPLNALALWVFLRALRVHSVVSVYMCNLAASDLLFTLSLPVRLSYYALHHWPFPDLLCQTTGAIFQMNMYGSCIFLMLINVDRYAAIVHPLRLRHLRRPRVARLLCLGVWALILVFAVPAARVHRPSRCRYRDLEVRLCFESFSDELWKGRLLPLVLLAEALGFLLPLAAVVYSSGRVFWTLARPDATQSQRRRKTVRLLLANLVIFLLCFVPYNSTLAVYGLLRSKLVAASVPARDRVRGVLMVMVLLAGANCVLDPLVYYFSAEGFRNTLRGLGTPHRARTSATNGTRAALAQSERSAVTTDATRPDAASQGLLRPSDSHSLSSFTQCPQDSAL
Description: as §1

[3] = system: lysophosphatidic acid receptor (LPAR); assay: Calcium-mobilization assay, overall statements for all species and LPAR subtypes tested; type: cell-based
Description: The compound was medicinally designed as an LPA analog with the goal of decreasing the otherwise rapid metabolism of LPA itself. […] These receptors are ubiquitous by tissue and in those eukaryotes investigated. […] Thus, the mechanism of drug action for GI-ARS protection is activation of the transmembrane G protein-coupled lysophosphatidic acid receptor (LPAR) and, more specifically, the LPAR2 GPCR subtype. The primary pharmacodynamics is that LPAR2 activation leads to a cascade of intracellular events that switch cells from an apoptotic to a repair/regenerative pathway.
as §1
Oleyl alcohol is, of course, a common component of many non-toxic ingested or dermally applied substances.

Human LPA1 = molecular target: T3, Human LPA1 (Homo sapiens, UniProt Q92633); assay: Calcium-mobilization assay (FURA-2), human LPA1 transfected cells; type: cell-based; settings: for EC50 / Emax (% of LPA): mean
T3 construct: expressed in transfected cells; host or cells: mouse embryonic fibroblasts (MEF)
T3 sequence (Q92633 whole entry): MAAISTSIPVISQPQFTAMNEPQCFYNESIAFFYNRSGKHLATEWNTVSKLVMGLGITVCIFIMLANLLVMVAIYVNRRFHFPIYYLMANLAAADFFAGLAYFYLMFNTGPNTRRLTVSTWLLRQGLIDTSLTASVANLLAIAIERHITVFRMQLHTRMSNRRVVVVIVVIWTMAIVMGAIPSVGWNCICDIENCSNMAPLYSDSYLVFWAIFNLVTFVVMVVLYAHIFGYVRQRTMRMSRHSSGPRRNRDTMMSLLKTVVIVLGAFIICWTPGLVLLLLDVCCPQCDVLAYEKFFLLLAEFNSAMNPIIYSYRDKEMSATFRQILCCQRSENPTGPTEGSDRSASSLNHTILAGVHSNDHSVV
Description: as §1

Human LPA2 = Human LPA2 (Homo sapiens, UniProt Q9HBW0); assay: Calcium-mobilization assay (FURA-2), human LPA2 transfected cells; type: cell-based; parameters: expressed in transfected cells; host or cells: mouse embryonic fibroblasts (MEF) or rat hepatoma RH7777
Sequence of Human LPA2 (Q9HBW0 whole entry): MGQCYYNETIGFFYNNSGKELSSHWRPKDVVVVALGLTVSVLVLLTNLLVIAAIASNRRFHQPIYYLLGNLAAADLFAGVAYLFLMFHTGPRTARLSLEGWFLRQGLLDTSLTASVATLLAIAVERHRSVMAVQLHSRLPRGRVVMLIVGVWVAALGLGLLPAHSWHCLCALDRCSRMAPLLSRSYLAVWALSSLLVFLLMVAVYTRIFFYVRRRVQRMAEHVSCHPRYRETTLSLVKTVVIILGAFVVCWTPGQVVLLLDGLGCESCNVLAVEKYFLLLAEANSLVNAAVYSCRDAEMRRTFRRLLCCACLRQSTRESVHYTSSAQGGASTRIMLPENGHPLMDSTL
Description: as §1

Human LPA3 = molecular target: T4, Human LPA3 (Homo sapiens, UniProt Q9UBY5); assay: Calcium-mobilization assay (FURA-2), human LPA3 transfected cells; type: cell-based; settings: for EC50 / Emax (% of LPA): mean
T4 construct: expressed in transfected cells; host or cells: mouse embryonic fibroblasts (MEF) or rat hepatoma RH7777
T4 sequence (Q9UBY5 1-353): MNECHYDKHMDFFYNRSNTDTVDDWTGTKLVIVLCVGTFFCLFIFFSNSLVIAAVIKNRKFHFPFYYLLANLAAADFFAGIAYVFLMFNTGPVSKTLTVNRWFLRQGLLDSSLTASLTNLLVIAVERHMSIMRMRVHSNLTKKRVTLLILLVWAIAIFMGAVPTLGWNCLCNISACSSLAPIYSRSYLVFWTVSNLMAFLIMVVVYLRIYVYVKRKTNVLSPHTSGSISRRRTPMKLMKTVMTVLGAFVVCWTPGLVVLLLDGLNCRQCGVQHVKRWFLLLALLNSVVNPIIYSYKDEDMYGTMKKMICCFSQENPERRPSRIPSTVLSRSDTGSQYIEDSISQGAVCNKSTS
Description: as §1

[4] = molecular target: T5, LPA2 receptors from the mouse (Mus musculus, UniProt Q9JL06); assay: Calcium-mobilization assay (FURA-2), mouse LPA2; type: cell-based
T5 construct: expressed in transfected cells
T5 sequence (Q9JL06 whole entry): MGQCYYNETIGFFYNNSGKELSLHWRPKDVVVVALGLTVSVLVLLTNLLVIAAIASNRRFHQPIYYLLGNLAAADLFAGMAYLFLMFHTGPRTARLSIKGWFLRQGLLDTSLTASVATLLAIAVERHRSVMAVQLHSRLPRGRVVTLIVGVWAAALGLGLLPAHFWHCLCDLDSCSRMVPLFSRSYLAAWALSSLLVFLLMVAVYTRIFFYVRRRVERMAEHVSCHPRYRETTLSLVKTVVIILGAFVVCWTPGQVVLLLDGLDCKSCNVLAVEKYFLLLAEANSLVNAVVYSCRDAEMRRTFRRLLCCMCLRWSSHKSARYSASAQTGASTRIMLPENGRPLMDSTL
Description: as §1

[5] = Short term (24 hour) slurry tests, XRPD of wet and dried solids; type: physicochemical; settings: 24 hour slurry; Water; one cell for 25° C. and 50° C.; starting form A
Description: Second, short term slurry tests were performed. Rx100.L-Lysine salt was slurried for a minimum of 24 hours in 15 different solvent systems at two different temperatures (25 and 50° C.) in an attempt to provide information for crystallization experiments and design of polymorph screening experiments. A 48 position Chemglass reaction block was used for heating and stirring the slurries which were in 2 mL HPLC vials. After the due time, vials were centrifuged and the wet solids were used for X-ray diffraction. […]

[6] = Characterization of scaled-up Rx100.L-Lysine salt (XRPD, DSC, TGA, 1H NMR, Karl Fischer, optical microscopy); type: physicochemical; settings: scaled-up lot 1980-18-1
Description: The Rx100.L-Lysine salts were dried overnight under vacuum at 35° C. and then characterized by XRPD, DSC, TGA, ^1HNMR, Karl Fischer (KF), optical microscopy and moisture sorption assays.
Ratio of Rx-100 to L-Lysine in the salt was calculated based on the ^1HNMR integration ratio of set-A protons to set-B protons of the salt. Set-A protons are from Rx-100 part of the molecule and set-B protons are from L-Lysine part of the molecule. These two set of protons were selected because they are very well separated from rest of the protons in the ^1HNMR of the molecule. As shown in the molecular scheme in FIG. 39, set-A protons correspond to two olefinic protons of Rx100 and appear at […] in the ^1H NMR. In contrast, set-B protons correspond to methylene of lysine part and appear at […]. Comparison of ^1H NMR integration values for set-A and set-B protons indicates the ratio of Rx100 to lysine as 1:1.5.
The exhibition of birefringence observed by optical microscopy confirmed the crystallinity observed by XRPD

[7] = Gravimetric moisture sorption analysis, with XRPD afterwards; type: physicochemical; settings: lot 1980-18-1; 95% RH; reversible
Description: Moisture sorption analysis of the Rx100.L-Lysine salt was performed by equilibrating the sample at 25° C. and 50% RH to simulate ambient lab conditions. Humidity then decreased to 0% RH, increased from 0 to 95% RH, reduced from 95 to 0% RH, increased from 0 to 95% RH and then decreased from 95 to 50% RH.

Beagle dogs = assay: Single-dose subcutaneous toxicity in dogs; type: in vivo; settings: 1 mL/kg of a 6-mg/mL concentration of L-lysine; same animals
Description: One group of one male and one female Beagle dogs received single escalating subcutaneous doses of Rx100.Lysine at 10 and 1 (female)/1.52 (male) mg/kg. […] Parameters evaluated included clinical signs, body weight, and gross pathology. The male and female dog survived until scheduled necropsy on Day 15. Administration of Rx100 had no effect on body weight or general health of the animals. Noteworthy clinical observations were confined to skin and behavior effects. Both animals scratched at the dose site, likely contributing to observations of redness at the dose site. Swelling and a thickened/raised area were also observed during the observation period. Clinical observations were sufficient to warrant the injection of diphenhydramine. […] Following injection of the L-lysine component of the formulation at an independent site, redness, scratching, or swelling was not seen.

[8] = RH7777, read-out: Emax (% of LPA)
[9] = Control CHO (untransfected; endogenously expresses LPA1)
[10] = Control CHO (untransfected; endogenously expresses LPA1), read-out: EC50
[11] = LPA1 DKO MEF, human, read-out: EC50
[12] = LPA1 RH7777, human, read-out: EC50

Sequence of LPA2 receptors from the rat (A0ABK0LT65 1-348): as the sequence (Q9JL06 whole entry) above, with A153V, A189V, Y211F, M310T, S316H, R321H, A324S, Q327R, R341H counted along it

`CCCCCCCC/C=C/CCCCCCCCOP(O)(O)=S` [Rx103] gave an EC50 [1] of 133 nM, an Emax ([1]; read-out: Emax (% of LPA)) of 87.6% and an EC50 [2] of 133 nM. It also gave an Emax ([2]; read-out: Emax (% of LPA)) of 90%, an EC50 (Human LPA4) greater than 5000 nM and an Emax (Human LPA4; CHO, read-out: Emax (% of LPA)) of 88%. For the same compound, the EC50 (Control CHO; Cricetulus griseus, CHO) was greater than 5000 nM, the Emax (Control CHO; Cricetulus griseus, CHO, read-out: Emax (% of LPA)) was 12% and the EC50 (LPA5) was 83 nM. For the same compound, the Emax (LPA5; B103, read-out: Emax (% of LPA)) was 103%, the “LPAR activation” value [3] was “has activity but has a uniformly reduced EC50 and Emax” and the EC50 (Human LPA1; EC50 [nM], LPA1 DKO MEF, human) was 367 nM. For the same compound, the EC50 (Human LPA1; EC50 [nM], LPA1 RH7777, human) was 1710 nM, the Emax (Human LPA1; [8]) was 75% and the Emax (Human LPA1; read-out: Emax (% of LPA)) was 90%. It also gave an EC50 (Human LPA2) of 241 nM, an Emax (Human LPA2; read-out: Emax (% of LPA)) of 70% and an EC50 (Human LPA3; EC50 [nM], LPA3 DKO MEF, human) of 61 nM. For the same compound, the EC50 (Human LPA3; EC50 [nM], LPA3 RH7777, human) was 74 nM, the Emax (Human LPA3; [8]) was 77% and the Emax (Human LPA3; read-out: Emax (% of LPA)) was 100%. The EC50 [4] was 355 nM and the Emax ([4]; read-out: Emax (% of LPA)) was 100%.

With “lysophosphatidic acid [LPA, reference compound]” the “Emax (% of LPA)” value ([1]; LPA2 DKO MEF, rat, mean) was 100 % of LPA, the EC50 ([1]; LPA2 DKO MEF, rat, mean, read-out: EC50) was 1.7 nM and the “Emax (% of LPA)” value ([2]; LPA2 DKO MEF, rhesus, mean) was 100 % of LPA. The EC50 ([2]; LPA2 DKO MEF, rhesus, mean, read-out: EC50) was 1.3 nM, the “Emax (% of LPA)” value (Control CHO; [9]) was 12% and the EC50 (Control CHO; [10]) was 605 nM. The “Emax (% of LPA)” value (Human LPA1; LPA1 DKO MEF, human) was 100 % of LPA, the EC50 (Human LPA1; [11]) was 354 nM and the “Emax (% of LPA)” value (Human LPA1; LPA1 RH7777, human) was 100 % of LPA. For the same compound, the EC50 (Human LPA1; [12]) was 28 nM, the “Emax (% of LPA)” value ([4]; LPA2 DKO MEF, mouse, mean) was 100 % of LPA and the EC50 ([4]; LPA2 DKO MEF, mouse, mean, read-out: EC50) was 4.4 nM.

With `CCCCCCCC/C=C\CCCCCCCCOP(O)(O)=S.NCCCC[C@H](N)C(=O)O` [Rx100. L-Lysine Salt] the “Resulting Form” value [5] was “Dissolved”.

In the case of `CCCCCCCC/C=C\CCCCCCCCOP(O)(O)=S.NCCCC[C@H](N)C(=O)O` [Rx100. L-Lysine salt], the “KF [Wt % water]” value [6] is reported as 1.8 Wt % water, the “Optical Microscopy” value [6] is reported as “Birefringent” and the “TGA [% Wt. loss]” value [6] is reported as 1.1 % Wt. loss. For the same compound, the “XRPD [Form]” value [6] was “Crystalline” and the “Moisture Sorption [Wt. % at 95% RH]” value [7] was 20.6 Wt. %.

With `NCCCC[C@H](N)C(=O)O` [L-lysine component, L-lysine] the “tolerability of subcutaneous injection” value (Beagle dogs) was “well tolerated”.

For `CCCCCCCC/C=C\CCCCCCCCOP(=O)(O)O` [Rx200, oleyl phosphate], the “EC50 [nM]” value ([1]; LPA2 DKO MEF, rat, mean) was “No”, the “Emax (% of LPA)” value ([1]; LPA2 DKO MEF, rat, mean) was “No” and the “EC50 [nM]” value ([2]; LPA2 DKO MEF, rhesus, mean) was “No”. For the same compound, the “Emax (% of LPA)” value ([2]; LPA2 DKO MEF, rhesus, mean) was “No”, the “Emax (% of LPA)” value (Human LPA4; LPA4 CHO, human, mean) was 70 % of LPA and the EC50 (Human LPA4; LPA4 CHO, human, mean, read-out: EC50) was 737 nM. The “Emax (% of LPA)” value (Control CHO; [9]) was 12%, the EC50 (Control CHO; [10]) was 965 nM and the “Emax (% of LPA)” value (LPA5; LPA5 B103, human, mean) was 100 % of LPA. For the same compound, the EC50 (LPA5; LPA5 B103, human, mean, read-out: EC50) was 167 nM, the “LPAR activation” value [3] was “virtually inactive” and the “Emax (% of LPA)” value (Human LPA1; LPA1 DKO MEF, human) was 53 % of LPA. For the same compound, the EC50 (Human LPA1; [11]) was 1360 nM, the “Emax (% of LPA)” value (Human LPA1; LPA1 RH7777, human) was 83 % of LPA and the EC50 (Human LPA1; [12]) was 328 nM. The “EC50 [nM]” value (Human LPA2; LPA2 DKO MEF, human, mean) was “No”, the “Emax (% of LPA)” value (Human LPA2; LPA2 DKO MEF, human, mean) was “No” and the “Emax (% of LPA)” value (Human LPA3; LPA3 DKO MEF, human) was 34 % of LPA. For the same compound, the EC50 (Human LPA3; LPA3 DKO MEF, human, read-out: EC50) was greater than 5000 nM, the “Emax (% of LPA)” value (Human LPA3; LPA3 RH7777, human) was 61 % of LPA and the EC50 (Human LPA3; LPA3 RH7777, human, read-out: EC50) was 747 nM. The “EC50 [nM]” value ([4]; LPA2 DKO MEF, mouse, mean) was “No” and the “Emax (% of LPA)” value ([4]; LPA2 DKO MEF, mouse, mean) was “No”.
